Data: patent US20050165028A1, “Vanilloid receptor ligands and their use in treatments” (priority 2004, published 2005)

melting point: 192 to 195 °C
Compound: O=C(Nc1ccc2c(c1)OCCO2)c1ccc(-c2cccs2)cc1 [Example 15, N-(2,3-Dihydro-benzo[1,4]dioxin-6-yl)-4-thiophen-2-yl-benzamide]
